Data set [1] concerns brain-glioma (CNS-1) tumor. Kind of data set: Tumor growth in glioma rat model (T1-weighted MRI tumor volumes). It counts as in vivo, Lewis male rats. The note with it: MTX 6 mg/kg IP, EA-HSA 0.5 mg/ml CED where combined. How it is done:
Intracranial inoculation of the tumor was performed as follows: a midline scalp incision was carried out under general anesthesia in order to locate the bregma. A burr hole (1 mm) was drilled on the right side, 3 mm anterior and 2 mm lateral to the bregma. A 33-gauge needle attached to a 1,000 μl syringe was placed stereotactically into the striatum to a depth of 5 mm through which a pellet of 2×10^5 CNS-1 rat glioma cells precipitated in 10 μl PBS buffer was infused into the striatum. The infusion was performed with a BASI syringe pump at a rate of 2 μl/min over a period of 5 min. The burr hole was sealed with bone wax to avoid the tumors from growing out of the skull. The intracranial inoculation of the tumor is designated Day-4 in Table 2.
EA-HSA was administered by CED into the rat brains under full anesthesia. For CED, a midline scalp incision was made under anesthesia to identify the bregma. Then, a burr hole (1 mm) was made in the right region of the skull, 3 mm anterior and 2 mm lateral to the bregma. […]
The volume (in mm^3) of BBB disruption and the increase in tumor volume were calculated from T1-weighted MR images. […] The number of pixels in the ROIs was then counted and multiplied by the volume of a single pixel (voxel). Tumor growth rates were calculated by dividing the tumor volumes at days 2 and 7 post treatment with the baseline tumor volumes (measured at day 0).

In data set [2] the test system is intracranial CNS-1 glioma tumors. The experiment in a line: Survival of glioma-bearing rats (Kaplan-Meier). It counts as in vivo, Lewis male rats. The note with it: rats bearing intracranial CNS-1 glioma; monitored up to 60 days. As for the experimental part:
The three rats groups were monitored for survival. Rats were monitored daily and sacrificed when lost>20% of body weight and/or were unable to eat or drink. Rats were monitored up to 60 days after the tumor cell implantation. The Kaplan-Meier survival curves were analyzed according to the Wilcoxon test.

The conditions of data set [3]: rat, in vivo, ip, 6 mg/kg. How it is done:
Additionally, MTX was administered intraperitoneally to naïve rats (n=26) at a dosage of 6 mg/kg body weight on days 0, 2 and 4. […] The combined administration, MTX even at three times of its maximal tolerated dose, with folinic acid prevented MTX toxicity.

Consider one compound from patent publication US20170247429A1, “BLOOD-BRAIN BARRIER DISRUPTING AGENTS AND USES THEREOF” (TEL HASHOMER MEDICAL RESEARCH INFRASTRUCTURE AND SERVICES …, priority 2014, published 2017).

Structures are written as SMILES.

For the compound `CN(Cc1cnc2nc(N)nc(N)c2n1)c1ccc(C(=O)N[C@@H](CCC(=O)O)C(=O)O)cc1` [MTX, Methotrexate], the “tumor volume normalized to day 0 (tumor growth rate)” value in data set [1] (day 2 post treatment) and in data set [1] (day 7 post treatment) was 2.2±0.4 throughout. The median survival time in data set [2] turned out to be 12 days. The “toxicity of MTX regimen” value in data set [3] is “symptomatic toxicity”.
